From patent publication US5432195A, “Benzofuran derivative and pharmaceutical composition” (Nippon Shinyaku Company Limited, priority 1991, dated 1995)
Structures can show the parent of a compound that is named as a salt.

Experiments:
[1] = tested on: fatty acid synthesis (liver slices of rat); experiment: lipid biosynthesis by tissue slices of liver of rat: fatty acid synthesis; type: cell-based; conditions: 10 μg/ml, percentage to the control; for activity at 10 µg/mL: Rattus norvegicus, 2 h, read-out: Fatty Acid Synth.; for Fatty Acid Synth.: 120 min
Protocol: (§1) 5) Action of the compounds of the present invention to lipid biosynthesis by tissue slices of liver of rat
(§2) Test method: Krebs-Ringer-Bicarbonate solution (1 ml) containing 1 mM of ^14 C-acetic acid and 10 μg/ml of the test substance was added to 100 mg of liver slices of rat, the air was substituted with a mixed gas (oxygen:carbon dioxide=95:5) and incubation was conducted at 37° C. for 2 hours. After completion of the reaction, 15% ethanolic solution of potassium hydroxide was added and saponification was conducted at 75° C. for 2 hours. A part of the saponified solution was subjected to a measurment of protein. Residual saponified solution was extracted with petroleum ether and the radioactivity of the petroleum ether layer was measured to determine the cholesterol synthesizing activity. The aqueous layer was acidified with 6N hydrochloric acid, extracted with petroleum ether and the radioactivity of the extract was measured to determine fatty acid synthesizing activity. The values were expressed in terms of percentage to the control after calculating the mol numbers (nmol/mg) of the ^14 C-acetic acid incorporated into each extract per protein (nmol/mg protein).

[2] = tested on: cholesterol synthesis (liver slices of rat); experiment: lipid biosynthesis by tissue slices of liver of rat: cholesterol synthesis; type: cell-based; conditions: 10 μg/ml, percentage to the control; for activity at 10 µg/mL: Rattus norvegicus, 2 h, read-out: Cholesterol Synth.; for Cholesterol Synth.: 120 min
Protocol: as §1, §2

[3] = tested on: total cholesterol (TC) in serum; experiment: lowering total cholesterol (TC) in serum using normal rhesus monkeys; type: in vivo; conditions: oral
Description: 1) An action of lowering total cholesterol (TC) in serum using normal rhesus monkeys. Test Method: Male rhesus monkeys of 2-5 years age (body weight: 3.0-6.4 kg; Experiment No.1) or male rhesus monkeys of 2-6 years age (body weight: 3.5-8.0 kg; Expt. Nos. 2, 3 and 4) were subjected to the experiments. During the experiment, solid feed (manufactured by Oriental Yeast) was given at the dose of 150 g once daily. Each group consisted of 2 to 6 monkeys. The substance to be tested was in a form of suspension in 0.5% methylcellulos solution. The suspension was given orally using rubber probe at the dose of 30, 50 or 100 mg/kg for seven days (Expt. Nos. 1 and 2(2)) or for 28 days (Expt. Nos. 2(1), 3 and 4). Blood was taken from saphena in lower limbs one week and immediately before the administration and also 7, 14, 21 and 28 days after the administration of the suspension whereby serum TC was measured. The change rate of serum TC was calculated by the following expression. The change rate of serum TC=(ATC-BTC)/BTC×100 In the expression, ATC is the TC after administration of the substance tested while BTC is the TC before the administration (average of those one week and immediately before the administration).

[4] = tested on: serum TC; experiment: Serum TC lowering action in normal crab-eating macaques; type: in vivo
Description: 2) Serum TC lowering action in normal crab-eating macaques.
Test Method: Male crab-eating macaques (body weight: 2.5-6.6 kg) were subjected to the experiments. During the expriment period, the feed (manufactured by Oriental Yeast) containing 0.1% (Expt. No. 1) or 0.3% (Expt. No. 2) of the compound of Example 4 was given once daily a 35 g/kg for 5 weeks (0.1%) or for 8 weeks (0.3%). Usual feed for monkeys was given to the control group. Blood was taken immediately before the administration and 1, 2 and 5 weeks after the administration in the case of 0.1% mixed feed or, in the case of 0.3% mixed feed, immediately before and 2, 4, 6 and 8 weeks after the administration. All operations for taking blood were conducted prior to giving the feed and the serum TC therein was measured. The change rate of the serum TC was calculated by the following expression.
The change rate of serum TC=(ATC-BTC)/BTC×100
In the expression, ATC is the TC after administration of the substance tested and BTC is the TC immediately before administration.

[5] = tested on: Mice of ddY-strain; experiment: Acute Toxicity; type: in vivo; conditions: oral, 2 g/kg
Protocol: Mice of ddY-strain (7 weeks age; four mice per group) were fasted overnight, the compound of Example 4 of the present invention suspended in 0.5% methylcellulose solution was orally administered at 2 g/kg and the general symptoms until 3 hours after that and those until one week thereafter were checked.

[6] = tested on: Lp(a); experiment: Influence on Lp(a): lowering Lp(a) in plasma in crab-eating monkeys; type: in vivo; conditions: 0.3% in feed, average ± S.E.
Protocol: Five to six crab-eating monkeys (male; body weight ranging 5-9 kg) as one group were fed and, to the group administered with the test sample, the feed containing 0.3% of this invention compound (that of Example 4) was fed while, to the control group, usual feed was given. The Lp(a) concentrations in the plasma were measured by the following method at the initiation of the administration, 13 weeks thereafter and 5 weeks after completion of the administration.
Commercially-available kit manufactured by Biopool Co, was used. In accordance with the procedures as given in the kit, PET buffer and sample buffer were prepared. To 20 μl of the plasma was added 1 ml of sample buffer and to 10 μl or 20 μl the resulting diluted liquid was further added 1.01 ml or 1 ml of the sample buffer to that the liquid diluted to an extent of 5202 times or 2601 times was prepared. In accordance with the steps as instructed by the kit, each 20 μl of the diluted sample was added to each well and measurement was conducted by duplicate. The result was calculated from the working curve prepared from the data obtained for the standard human Lp(a) in the kit.

[7] = tested on: fatty acid synthesis (liver slices of rat); experiment: lipid biosynthesis of tissue slices of liver of rat (part 2): fatty acid synthesis; type: cell-based; conditions: 2 h, 10 μg/ml, percentage to the control
Protocol: as §2
(§3) 6) Action of the compounds of the present invention to lipid biosynthesis of tissue slices of liver of rat (part 2)
(§4) The activity of the present invention compound was measured by the same manner as above 5). The values were expressed in terms of percentage to the control after calculating the mol numbers (nmol/mg) of the ^14 C-acetic acid incorporated into each extract per protein (nmol/mg protein).

[8] = tested on: cholesterol synthesis (liver slices of rat); experiment: lipid biosynthesis of tissue slices of liver of rat (part 2): cholesterol synthesis; type: cell-based; conditions: 2 h, 10 μg/ml, percentage to the control
Protocol: as §2, §3, §4

[9] = tested on: Lp(a); conditions: J. Internal Medicine 226 271-276 (1989); cited from earlier work

CC(C)(C)c1ccc2oc(C(O)COc3ccc(C(=O)O)cc3)cc2c1 (single isomer, unassigned; (+)) [Example 11, (+)-5-tert-Butyl-2-[2-(4-carboxyphenoxy)-1-hydroxyethyl]benzofuran]
activity at 10 µg/mL ([1]; Expt. 1): 12%
activity at 10 µg/mL ([1]; Expt. 2): 18%
activity at 10 µg/mL ([2]; Expt. 1): 35%
activity at 10 µg/mL ([2]; Expt. 2): 24%

CC(C)(C)c1ccc2oc(C(O)COc3ccc(C(=O)O)cc3)cc2c1 (single isomer, unassigned; (-)) [Example 12, (-)-5-tert-Butyl-2-[2-(4-carboxyphenoxy)-1-hydroxyethyl]benzofuran]
Fatty Acid Synth. ([1]; Expt. 1): 16%
Fatty Acid Synth. ([1]; Expt. 2): 14%
Cholesterol Synth. ([2]; Expt. 1): 33%
Cholesterol Synth. ([2]; Expt. 2): 27%

CC(C)(Oc1ccc(CCNC(=O)c2ccc(Cl)cc2)cc1)C(=O)O [Bezafibrate, reference compound]
TC Change Rate ([3]; 100 mg/kg, after 7 days): -13%
TC Change Rate ([3]; 100 mg/kg, after 14 days): -10%
TC Change Rate ([3]; 100 mg/kg, after 21 days): 3%
TC Change Rate ([3]; 100 mg/kg, after 28 days): -7%

CC(C)(C)c1ccc2oc(C(O)COc3ccc(C(=O)O)cc3)cc2c1 (stereo not shown) [Example 4, 5-tert-Butyl-2-[2-(4-carboxyphenoxy)-1-hydroxyethyl]benzofuran]
TC Change Rate ([4]; 0.1% in the feed, after 1 week): 16%
TC Change Rate ([4]; 0.1% in the feed, after 2 weeks): -18%
TC Change Rate ([4]; 0.1% in the feed, after 5 weeks): -31%
TC Change Rate ([4]; 0.3% in the feed, after 2 weeks): -32%
TC Change Rate ([4]; 0.3% in the feed, after 4 weeks): -46%
TC Change Rate ([4]; 0.3% in the feed, after 6 weeks): -42%
TC Change Rate ([4]; 0.3% in the feed, after 8 weeks): -37%
Acute toxicity: deaths ([5]; observed until one week): no animals tested were dead
Acute toxicity: general symptoms ([5]; until 3 hours and until one week thereafter): no abnormal symptoms were noticed
Plasma Lp(a) ([6]; 5 weeks after completion of administration): 60.1 ± 7.9 mg/dL
Plasma Lp(a) ([6]; 13 weeks thereafter): 9.2 ± 1.2 mg/dL
Plasma Lp(a) ([6]; Immed. after administration (text: at the initiation)): 73.2 ± 8.5 mg/dL
activity at 10 µg/mL ([1]; Expt. 1): 20%
activity at 10 µg/mL ([1]; Expt. 2): 12%
activity at 10 µg/mL ([2]; Expt. 1): 41%
activity at 10 µg/mL ([2]; Expt. 2): 27%
activity at 10 µg/mL [7]: 29%
activity at 10 µg/mL [8]: 61%

CC(C)c1ccc2oc(C(O)COc3ccc(C(=O)O)cc3)cc2c1 (stereo not shown) [Example 6, 2-[2-(4-Carboxyphenoxy)-1-hydroxyethyl]5-isopropylbenzofuran]
TC Change Rate ([3]; 100 mg/kg, after 7 days): -42%

CC(C)c1ccc2oc(C(O)COc3ccc(C(=O)O)cc3)cc2c1 (stereo not shown) [Example 8, 2-[2-(4-Carboxyphenoxy)-1-hydroxyethyl]-5-isopropylbenzofuran sodium salt]
TC Change Rate ([3]; 50 mg/kg, after 7 days): -31%
TC Change Rate ([3]; 50 mg/kg, after 14 days): -31%
TC Change Rate ([3]; 50 mg/kg, after 21 days): -44%
TC Change Rate ([3]; 50 mg/kg, after 28 days): -51%

CC(C)c1ccc2oc(C(O)COc3ccc(C(=O)O)cc3)cc2c1 (stereo not shown) [Example 9, 2-[2-(4-Carboxyphenoxy)-1-hydroxyethyl]-5-isopropylbenzofuran calcium salt]
TC Change Rate ([3]; 30 mg/kg, after 7 days): -19%
TC Change Rate ([3]; 30 mg/kg, after 14 days): -34%
TC Change Rate ([3]; 30 mg/kg, after 21 days): -29%
TC Change Rate ([3]; 30 mg/kg, after 28 days): -24%

CC(C)c1ccc2oc(C(O)COc3ccc(CO)cc3)cc2c1 (stereo not shown) [Example 10, 2-[1-Hydroxy-2-(4-hydroxymethylphenoxy)ethyl]-5-isopropylbenzofuran]
TC Change Rate ([3]; 100 mg/kg, after 7 days): -32%

CC(C)(C)c1ccc2oc(C(=O)COc3ccc(C(=O)O)cc3)cc2c1 [Example 14, 5-tert-Butyl-2-(4-carboxyphenoxyacetyl)benzofuran]
activity at 10 µg/mL [7]: 32%
activity at 10 µg/mL [8]: 64%

CC(=O)OC(COc1ccc(C(=O)O)cc1)c1cc2cc(C(C)C)ccc2o1 (stereo not shown) [Example 17, 2-[1-Acetoxy-2-(4-carboxyphenoxy)ethyl]-5-isopropylbenzofuran]
activity at 10 µg/mL [7]: 33%
activity at 10 µg/mL [8]: 66%

O=C(O)c1cccnc1 [Nicotinic acid]
adverse reactions [9]: flushing
concentration of Lp(a) in blood [9]: lowers the concentration of Lp(a) in blood
